Experimental data published in patent publication US10253080B2, “Glucagon-like-peptide-2 (GLP-2) analogues” (Zealand Pharma A/S, priority 2012, dated 2019).
Non-standard residues stand in square brackets, D forms with d. Residues, ends and D or L forms follow the SMILES beside them. Aib = CC(C)(N)C(=O)O

Tests used:
[1] = biological target: T1, human GLP-2 receptor (Homo sapiens, UniProt O95838, D470N); experiment: GLP-2 receptor efficacy assay (cAMP AlphaScreen); type: cell-based; conditions: HEK293 cells expressing hGLP-2 receptor, cAMP response; read-out: GLP-2R EC50
T1 construct: host or cells: HEK293
T1 sequence (O95838 1-553 D470N): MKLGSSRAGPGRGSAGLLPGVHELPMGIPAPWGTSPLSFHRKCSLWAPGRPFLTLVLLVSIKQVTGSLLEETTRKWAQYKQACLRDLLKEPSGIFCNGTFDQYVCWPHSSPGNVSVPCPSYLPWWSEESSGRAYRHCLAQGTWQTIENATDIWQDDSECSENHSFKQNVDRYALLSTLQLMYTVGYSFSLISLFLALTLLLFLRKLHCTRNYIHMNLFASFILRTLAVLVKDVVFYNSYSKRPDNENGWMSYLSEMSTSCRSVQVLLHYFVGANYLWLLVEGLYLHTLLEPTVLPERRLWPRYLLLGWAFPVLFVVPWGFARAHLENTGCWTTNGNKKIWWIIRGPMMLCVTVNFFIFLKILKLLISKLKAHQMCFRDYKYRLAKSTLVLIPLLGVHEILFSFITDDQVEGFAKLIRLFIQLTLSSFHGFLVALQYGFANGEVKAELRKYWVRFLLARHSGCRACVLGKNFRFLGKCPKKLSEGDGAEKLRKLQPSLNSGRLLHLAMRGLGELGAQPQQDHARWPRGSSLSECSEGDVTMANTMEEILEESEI
Method: Test compounds inducing an increase in the intracellular level of cAMP were tested in this assay, and the response normalized relative to a positive and negative control to calculate the EC50 and maximal response from the concentration response curve.
The hGLP2-R was purchased from MRC-geneservice, Babraham, Cambridge as an image clone: 5363415 (11924-117). For subcloning into an mammalian expression vector, primers for subcloning were obtained from DNA-Technology, Risskov, Denmark. The 5′ and 3′ primers used for the PCR reaction include terminal restriction sites for cloning and the context of the 5′ primer is modified to a Kozak consensus without changing the sequence of the product encoded by the ORF. A standard PCR reaction was run using image clone 5363415 (11924-117) as a template with the above mentioned primers and Polymerase Herculase II Fusion in a total vol, of 50 μl. The generated PCR product was purified using GFX PCR and Gel band purification kit, digested with restriction enzymes and cloned into the mammalian expression vector using Rapid DNA Ligation Kit. Ligation reaction was transformed to XL10 Gold Ultracompetent cells and colonies were picked for DNA production using Endofree Plasmid maxi kit. Subsequent sequence analysis was conducted by MWG Eurofins, Germany.
HEK293 cells were transfected using the Lipofectamine PLUS transfection method. The day before transfection, HEK293 cells were seeded in two T75 flasks at a density of 2×10^6 cells/T75 flask in cell culturing medium without antibiotics. On the day of transfection, cells were washed with 1×DPBS and medium was replaced with Optimem to a volume of 5 mL/T75 flask before addition of Lipofectamine-plasmid complexes were added gently and drop wise to the cells in T75 flasks and replaced with growth medium after 3 hours and again to growth medium supplemented with 500 μg/mL G418 after 24 hours. After 4 weeks in G418 selection, colonies were picked and tested in a functional assay. One colony was selected for use in compound profiling.
(§1) Data from test compounds eliciting an increase in the intracellular level of cAMP were normalized relative to the positive and negative control (vehicle) to calculate the EC50 and maximal response from the concentration response curve.

[2] = biological target: T2, human GLP-1 receptor (Homo sapiens, UniProt P43220); experiment: GLP-1 receptor efficacy assay (cAMP AlphaScreen); type: cell-based; conditions: HEK293 cells expressing human GLP-1R, cAMP response
T2 construct: expressed in transfected cells; host or cells: HEK293
T2 sequence (P43220 24-463): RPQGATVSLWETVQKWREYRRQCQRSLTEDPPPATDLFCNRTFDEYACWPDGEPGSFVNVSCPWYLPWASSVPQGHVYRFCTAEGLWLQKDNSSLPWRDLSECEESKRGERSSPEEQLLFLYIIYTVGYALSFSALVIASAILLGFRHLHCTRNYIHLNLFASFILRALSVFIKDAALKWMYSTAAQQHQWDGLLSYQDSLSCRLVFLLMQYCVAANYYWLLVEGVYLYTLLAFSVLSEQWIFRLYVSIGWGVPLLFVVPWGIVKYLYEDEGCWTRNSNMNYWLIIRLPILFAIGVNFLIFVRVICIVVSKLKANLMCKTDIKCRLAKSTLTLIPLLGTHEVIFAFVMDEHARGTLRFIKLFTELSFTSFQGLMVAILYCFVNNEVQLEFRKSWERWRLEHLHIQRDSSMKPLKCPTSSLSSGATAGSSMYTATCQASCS
Method: The 5′-end primers additionally encoded a near Kozak consensus sequence to ensure efficient translation. […] 48 hours after transfection, cells were seeded for limited dilution cloning and selected with 1 mg/ml G418 in the culture medium.
as §1

[3] = DPP IV degradation and renal clearance (Tavares et al. 2000); cited from earlier work
[4] = Oral glucose tolerance test (OGTT) in normal mice; type: in vivo, C57BL/6J male mice; conditions: single SC dose 1 h before 2 g/kg oral glucose; vs vehicle; FIG. 2
Method: Normal chow-fed C57BL/6J male mice were used. The mice were kept in standard housing conditions (light-, temperature-, and humidity-controlled room (12:12 h light-dark cycle, with lights on at 06.00-18.00 h; 24° C.; 50% relative humidity)), and each dosing group consisted of 10 animals.
Prior to the oral glucose tolerance test (OGTT), animals were fasted for 5 h. One hour before glucose challenge (time t=−60 min) baseline blood glucose was measured. Immediately after the blood sample, the animals were dosed once subcutaneously with compound at the indicated amount or PBS (vehicle). One hour later at t=0 min, a 2 g/kg oral gavage of glucose (0.4 g/ml in water diluted from glucose SAD […]; dose volume 5 ml/kg) was given to the animals. After glucose administration, tail vein blood was drawn for glucose measurements at t=15, 30, 60, 120 min.

[5] = Effect on intestinal weight in normal rats; type: in vivo, Wistar male rats; conditions: SC once daily for four days, weighed day 5; FIG. 3
Method: Normal chow-fed Wistar male rats were used. The rats were kept in standard housing conditions (light-, temperature-, and humidity-controlled room (12:12 h light-dark cycle, with lights on at 06.00-18.00 h; 24° C.; 50% relative humidity)), and each dosing group consisted of 6 animals. Rats were dosed once daily via the subcutaneous route, for four days with compound at the indicated amount or PBS (vehicle). On day five, rats were sacrificed and small intestinal weight wet measured.

[6] = Effect in diet-induced obese mice (intestinal mass, glucose homeostasis); type: in vivo, C57BL/6J male mice; conditions: SC twice daily for 14 days
Method: Diet-induced obesity was generated by feeding C57BL/6J male mice with high fat diet (Research Diet 60% fat (D12492) Research Diet Inc., New Brunswick, USA). The mice were kept in standard housing conditions (light-, temperature-, and humidity-controlled room (12:12 h light-dark cycle, with lights on at 06.00-18.00 h; 24° C.; 50% relative humidity)).
The vehicle treated dosing group contained 8 animals and the compound 7 treated groups consisted of 12 animals/group. All animals were mock treated for 7 days (once daily, SC, 100 μl vehicle) to acclimatize the animals to handling and injections, followed by treatment (vehicle or compound 7) for 14 days (twice daily, SC, 5 ml/kg). Animals were fasted overnight (day 11-12) and blood was drawn for analysis of glucose and insulin. On day 14, animals were sacrificed and small and large intestines removed, washed and weighed.

[7] = biological target: human GLP-2 receptor (hGLP2-R), splice variant rs17681684 (human, UniProt O95838); experiment: cell-based or functional assay

Molecule: H-HGDGSFSSELATILDGQAARDFIAWLIQTKITD-OH [Compound 11] [listing 1 of 2 here]
- EC50 [1]: 0.2 nM

Molecule: H-HGEGSFSSDLSTILENKAARDFIEWLIQTKITD-OH [Compound 9] [listing 1 of 2 here]
- EC50 [1]: 0.2 nM

Molecule: H-HGDGSFSSELATILDGKAARDFINWLIQTKITD-OH [Compound 7] [listing 1 of 2 here]
- EC50 [1]: 0.2 nM

Molecule: CC[C@H](C)[C@H](NC(=O)[C@H](Cc1ccccc1)NC(=O)[C@H](CC(=O)O)NC(=O)[C@H](CCCNC(=N)N)NC(=O)[C@H](C)NC(=O)[C@H](C)NC(=O)[C@H](CCCCN)NC(=O)CNC(=O)[C@H](CC(=O)O)NC(=O)[C@H](CC(C)C)NC(=O)[C@@H](NC(=O)[C@@H](NC(=O)[C@H](CC(N)=O)NC(=O)[C@H](CC(C)C)NC(=O)[C@H](CCC(=O)O)NC(=O)[C@H](CC(=O)O)NC(=O)[C@H](CO)NC(=O)[C@H](Cc1ccccc1)NC(=O)[C@H](CO)NC(=O)CNC(=O)[C@H](CC(=O)O)NC(=O)C(C)(C)NC(=O)[C@@H](N)Cc1c[nH]cn1)[C@@H](C)O)[C@@H](C)CC)C(=O)N[C@@H](CC(N)=O)C(=O)N[C@@H](Cc1c[nH]c2ccccc12)C(=O)N[C@@H](CC(C)C)C(=O)N[C@H](C(=O)N[C@@H](CCC(N)=O)C(=O)N[C@H](C(=O)N[C@@H](CCCCN)C(N)=O)[C@@H](C)O)[C@@H](C)CC [Compound 10] (H-H[Aib]DGSFSDELNTILDGKAARDFINWLIQTK-NH2)
- EC50 [2]: 0.03 nM

Molecule: H-HGEGSFSSDLSTILENKAARDFIEWLIQTKITD-OH [Compound 9] [listing 2 of 2 here]
- EC50 [2]: 9.1 nM

Molecule: H-HGDGSFSSEMNTILDSQAARDFINWLIQTKITD-OH [Compound 4] [listing 1 of 2 here]
- EC50 [2]: 25 nM

Molecule: His-Ala-Asp-Gly-Ser-Phe-Ser-Asp-Glu-Met-Asn-Thr-Ile-Leu-Asp-Asn-Leu-Ala-Ala-Arg-Asp-Phe-Ile-Asn-Trp-Leu-Ile-Gln-Thr-Lys-Ile-Thr-Asp [GLP-2(1-33)]
- half life [3]: about 7 minutes

Molecule: H-HGDGSFSSEMNTILDSQAARDFINWLIQTKITD-OH [Compound 4] [listing 2 of 2 here]
- EC50 [1]: 0.06 nM

Molecule: H-HGDGSFSDEMNTILDGQAARDFINWLIQTK-NH2 [Compound 3]
- EC50 [2]: 9 nM

Molecule: H-HGEGTFTSDLSKQMEGQAVRDFIEWLIQTKITD-OH [Compound 5] [listing 1 of 2 here]
- EC50 [2]: 1 nM

Molecule: H-HGEGTFTSDLSTILENKAARDFIEWLIQTKITD-OH [Compound 8] [listing 1 of 2 here]
- EC50 [1]: 0.008 nM

Molecule: H-HGEGTFTSDLSTILENKAARDFIEWLIQTKITD-OH [Compound 8] [listing 2 of 2 here]
- EC50 [2]: 16 nM

Molecule: H-HGDGSFSSELATILDGQAARDFIAWLIQTKITD-OH [Compound 11] [listing 2 of 2 here]
- EC50 [2]: 0.34 nM

Molecule: H-HGDGSFSDEMNTILDGQAARDFINWLIQTK-NH2 [Compound 12]
- blood glucose response in OGTT [4]: significantly reduced the blood glucose response
- EC50 [2]: 0.07 nM

Molecule: H-HGEGTFTSDLSKQMESKAARDFIEWLIQTKITD-OH [Compound 6]
- EC50 [1]: 0.2 nM

Molecule: H-HGEGSFSSDLSTILEGKAARDFIEWLIQTKITD-OH [Compound 13] [listing 1 of 2 here]
- EC50 [1]: 0.1 nM

Molecule: CC[C@H](C)[C@H](NC(=O)[C@H](Cc1ccccc1)NC(=O)[C@H](CC(=O)O)NC(=O)[C@H](CCCNC(=N)N)NC(=O)[C@H](C)NC(=O)[C@H](C)NC(=O)[C@H](CC(C)C)NC(=O)[C@H](CC(N)=O)NC(=O)[C@H](CC(=O)O)NC(=O)[C@H](CC(C)C)NC(=O)[C@@H](NC(=O)[C@@H](NC(=O)[C@H](CC(N)=O)NC(=O)[C@H](CCSC)NC(=O)[C@H](CCC(=O)O)NC(=O)[C@H](CC(=O)O)NC(=O)[C@H](CO)NC(=O)[C@H](Cc1ccccc1)NC(=O)[C@H](CO)NC(=O)CNC(=O)[C@H](CC(=O)O)NC(=O)CNC(=O)[C@@H](N)Cc1c[nH]cn1)[C@@H](C)O)[C@@H](C)CC)C(=O)N[C@@H](CC(N)=O)C(=O)N[C@@H](Cc1c[nH]c2ccccc12)C(=O)N[C@@H](CC(C)C)C(=O)N[C@H](C(=O)N[C@@H](CCC(N)=O)C(=O)N[C@H](C(=O)N[C@@H](CCCCN)C(=O)N[C@H](C(=O)N[C@H](C(=O)N[C@@H](CC(=O)O)C(=O)O)[C@@H](C)O)[C@@H](C)CC)[C@@H](C)O)[C@@H](C)CC [GLP-2 (Gly2), reference compound]
- EC50 [2]: > 200 nM

Molecule: H-HGEGTFTSDLSKQMEGQAVRDFIEWLIQTKITD-OH [Compound 5] [listing 2 of 2 here]
- EC50 [1]: 0.2 nM

Molecule: H-HGDGSFSSELATILDGKAARDFINWLIQTKITD-OH [Compound 7] [listing 2 of 2 here]
- small intestinal wet weight [5]: increased intestinal weight in a dose dependant manner
- fasting blood glucose ([6]; overnight fast day 11-12, vs vehicle, FIG. 5A): reduced
- fasting plasma insulin levels ([6]; overnight fast day 11-12, vs vehicle, FIG. 5B): reduced
- small intestinal mass ([6]; vs vehicle, FIG. 4A): significantly increased
- large intestinal mass ([6]; vs vehicle, FIG. 4B): significantly increased
- HOMA-IR index ([6]; vs vehicle, FIG. 5C): lower HOMA-IR index than vehicle treated controls
- EC50 [2]: 0.78 nM

Molecule: H-HGEGSFSSDLSTILEGKAARDFIEWLIQTKITD-OH [Compound 13] [listing 2 of 2 here]
- EC50 [2]: 18 nM

Molecule: HDEFERHAEGTFTSDVSSYLEGQAAKEFIAWLVKGRG [GLP-1]
- GLP-2R EC50 (nM), cAMP AlphaScreen [7]: > 1000 nM
